These results are taken from US12662518B2, “Engineered peptide and peptide mimetic compositions and methods” (The Wistar Institute of Anatomy and Biology, priority 2019, dated 2026).

“Also recorded” adds a separate entry of the source. Ends that are not written are not given here. Peptide text beside a SMILES is read from it.

For data set [1], the system named is drug-sensitive and drug-resistant melanoma cells. The conditions noted are these: isogenic pairs, CellTox reactivity.
Method: (§2) Cell death and apoptosis. […] The various cell-permeable MFF peptides were examined for induction of cytotoxicity using a CellTOX Green cytotoxicity assay kit (Promega). Briefly, 10^4 normal or tumor cells in 100 μl complete medium were plated on white opaque 96-well plate. […] Lysis Solution in the assay kit was used as cytotoxicity control (100% cell death) and treatment with PBS was used as a control for 100% cell viability.
Data set [2] has as its system PC3 cells. Kind of data set: mitochondrial membrane potential in tumor cells, TMRE, time-lapse videomicroscopy and flow cytometry. The format is cell-based, human. The conditions noted are these: 10 μM, single-cell time-lapse videomicroscopy or whole cell population. How it is done:
Analysis of mitochondrial membrane potential. […] In some experiments, PC3 cells were treated with cell-permeable scrambled peptide or cell-permeable MFF #8-11 peptide, washed three times in PBS, pH 7.4, and analyzed on a FACSCalibur flow cytometer, with the TMRE signal as FL1. Intact cells were gated in the FSC/SSC plot to exclude small debris. Cells treated with 20 μM FCCP 10 min prior to TMRE staining were used as a negative control. The resulting FL1 data were plotted on a histogram. For quantification of membrane potential of purified mitochondria, mitochondria isolated from PC3 cells (50 μg) were suspended in 400 μl of SB buffer (0.2 M sucrose, 10 mM Tris-MOPS, pH 7.4, 5 mM succinate, 1 mM sodium phosphate, 10 μM EGTA-Tris, 2 μM rotenone). […] After two washes with SB buffer, mitochondria were recovered by centrifugation at 6000×g for 10 min, suspended in 100 μl of SB buffer and mitochondrial membrane potential was quantified on a florescence microplate reader (Ex/Em=535/595 nm, Beckman Coulter). […]
For time-lapse videomicroscopy, PC3 cells (2×10^4) growing in high optical-quality glass bottom chambered 8-well cell culture slides (MatTek Corporation) were stained with 100 nM TMRE (Abcam) and 50 nM MitoTracker Green FM (Life Technologies) for 20 min. […] A minimum of 100 cells were analyzed from 2 independent experiments. […]
For orientation: In flow cytometry, cells or beads pass a laser one at a time.

The next data set has as its system glioblastoma LN229 cells. Description: cell death of glioblastoma cells. It counts as cell-based, human. From the text:
(§1) Cell death and apoptosis.

Another data set relates to DU145 or PC3 cells. Description: release of HMGB1 and cyclophilin A from tumor cells, Western blotting. The format is cell-based, human. The conditions noted are these: marker of necrosis. Background: A western blot detects proteins with antibodies after separation by electrophoresis.
Data set [3] concerns prostate cancer cell types (LNCaP, C4-2B, PC3, DU145). Kind of data set: cell death of prostate cancer cells, CellTox reactivity. The format is cell-based, human. As to conditions: for tumor cell death / viability: PC3 / prostate cancer cells, 0-50 μM.
Method: as §2
For another data set, the system named is CypD^−/− MEF. Description: cell death of CypD-/- MEF. The format is cell-based, mouse. As to conditions: 25 μM.
Source text: as §1

The subject of data set [4] is PC3 cells. Description: cytochrome c release from tumor cells, Western blotting. It counts as cell-based, human. As to conditions: supernatants vs mitochondrial extracts.
Data set [5] relates to immortalized wild type (WT) mouse embryonic fibroblasts (MEF). Description: cell death of wild type MEF. The format is cell-based. The conditions noted are these: 10-50 μM.
Source text: as §1

For data set [6], the system named is normal prostatic epithelial cells (BPH-1). Description: cell death of normal prostatic epithelial cells. As to conditions: 0-40 μM, 2 h. It counts as cell-based, human.
Source text: as §1

Data set [7] relates to patient-derived breast adenocarcinoma organoids. Kind of data set: patient-derived breast adenocarcinoma organoids, Ki-67 and cleaved caspase-3 immunohistochemistry. It counts as cell-based, human. The conditions noted are these: 50-100 μM, 24 h.
In data set [8] the test system is patient-derived NSCLC organoids. Kind of data set: patient-derived NSCLC organoids, Ki-67 and cleaved caspase-3 immunohistochemistry. The format is cell-based, human. As to conditions: 50-100 μM, 24 h.
Data set [9] deals with NSCLC A549 and H460 or breast adenocarcinoma MDA-231 and MCF-7 cells. Kind of data set: NSCLC and breast adenocarcinoma cell lines, TMRE flow cytometry and CellTox cell death. As to conditions: A549, H460, MDA-231, MCF-7 cells, 10-25 μM. The format is cell-based, human.
The subject of data set [10] is normal human foreskin fibroblasts (HFF). Kind of data set: cell death of normal fibroblasts. The format is cell-based. As to conditions: 0-40 μM.
Source text: as §1

Data set [11] concerns patient-derived glioblastoma (GBM) neurospheres. Description: patient-derived glioblastoma (GBM) neurospheres, calcein / To-Pro viability. It counts as cell-based. As to conditions: 10-50 μM, 1, 3 or 24 h; scrambled 50 μM. From the text: Glioblastoma (GBM) neurospheres. Primary, patient-derived GBM neurospheres were isolated and maintained in culture essentially as described (Senft, D. & Ronai, Z. A. Regulators of mitochondrial dynamics in cancer. Curr Opin Cell Biol 39, 43-52 (2016)). Tissue samples were obtained from chemotherapy- or radiotherapy-naïve patients with confirmed histological diagnosis of WHO grade IV glioma (GBM) undergoing treatment at the Neurosurgery Division of Fondazione IRCCS Ca' Granda Ospedale Maggiore Policlinco (Milan, Italy). Written informed consent was obtained from all patients. Neurospheres were cyto-spinned on charged slides (Thermo Scientific, Waltham, Mass.) and treated with cell-permeable scrambled peptide (50 μM) or cell-permeable retro-inverso D-enantiomer MFF peptide (10-50 μM) for up to 24 h. Control-normalized changes in cell viability under the various conditions were determined by the ratio of Calcein (alive) and To-Pro (dead) staining and fluorescence microscopy (Eclipse Ti-E, Nikon Instruments, Florence, Italy).

With `CC[C@H](C)[C@H](NC(=O)CNC(=O)[C@H](CCCNC(=N)N)NC(=O)[C@H](C)NC(=O)[C@H](CO)NC(=O)[C@H](CCCCN)NC(=O)[C@H](CCSC)NC(=O)[C@H](CCCNC(=N)N)NC(=O)[C@H](CCCNC(=N)N)NC(=O)[C@H](CC(N)=O)NC(=O)[C@H](CCC(N)=O)NC(=O)[C@H](Cc1ccccc1)NC(=O)[C@H](Cc1c[nH]c2ccccc12)NC(=O)[C@@H](NC(=O)[C@H](CCCCN)NC(=O)[C@@H](NC(=O)[C@H](CCC(N)=O)NC(=O)[C@H](CCCNC(=N)N)NC(=O)CCCCCNC(=O)CCCC[C@@H]1SC[C@@H]2NC(=O)N[C@@H]21)[C@@H](C)CC)[C@@H](C)CC)C(=O)N[C@@H](CC(C)C)C(=O)N[C@@H](CO)C(=O)N[C@@H](CC(C)C)C(=O)N[C@H](C(=O)N[C@@H](CCC(N)=O)C(=O)N[C@@H](CO)C(=O)N[C@@H](CO)C(=O)N[C@H](C(=O)N[C@@H](CCCNC(=N)N)C(=O)N[C@@H](CCCNC(=N)N)C(=O)N[C@@H](C)C(=O)N[C@@H](Cc1ccc(O)cc1)C(=O)N[C@@H](CCC(N)=O)C(=O)N[C@@H](CCC(N)=O)C(=O)N[C@H](C(=O)N[C@@H](CC(C)C)C(=O)O)[C@@H](C)CC)[C@@H](C)O)[C@@H](C)CC` [cell-permeable MFF peptide #8-11] (HELM PEPTIDE1{[O=C1N[C@H]2[C@H](CS[C@H]2CCCCC(=O)[*:2])N1].[O=C(CCCCCN[*:1])[*:2]].R.Q.I.K.I.W.F.Q.N.R.R.M.K.S.A.R.G.I.L.S.L.I.Q.S.S.T.R.R.A.Y.Q.Q.I.L}$$$$V2.0; N-terminus and C-terminus assumed), in data set [1], the “cell death of drug-sensitive and drug-resistant melanoma cells” value was “comparably killed”. The “loss of mitochondrial membrane potential” value in the data set with PC3 cells [2] was “induced acute loss of mitochondrial membrane potential; also recorded: induced sudden loss of mitochondrial membrane potential”. In the data set with glioblastoma LN229 cells (glioblastoma, read-out: IC50, cell killing), the IC50 – broadly, the concentration that inhibits the measured activity by half – was ~10 µM. Further, in the data set on DU145 or PC3 cells, the “HMGB1 release from tumor cells” value was “induced the release of HMGB1 and cyclophilin A (CypA)”; the “cyclophilin A (CypA) release from tumor cells” value is “induced the release of HMGB1 and cyclophilin A (CypA)”. Further, the “tumor cell death / viability” value in data set [3] was “efficiently killed tumor cells in a time- and concentration-dependent manner”. Also, the IC50 in data set [3] (prostate cancer cell types, read-out: IC50, cell killing) is ~10 µM. In addition, the “cell death of CypD^−/− MEF” value with CypD^−/− MEF is reported as “abolished cell death”. In addition, the “cytochrome c release from tumor cells” value in the data set on PC3 cells [4] is “induced cytochrome c release”. Also, the “cell death of WT MEF” value in data set [5] is “killed immortalized wild type (WT) mouse embryonic fibroblasts (MEF) in a concentration-dependent manner; also recorded: efficiently killed WT MEF in a time- and concentration-dependent response”.

Take “cell-permeable scrambled peptide: cell-permeable control scrambled peptide #8-11 (SEQ ID NO: 22) (SSQLRYLARSQRITIQLIAGS; also: cell-permeable moiety)”: the “cell death of normal prostatic epithelial cells” value in [6] is given as “did not kill normal or prostate cancer cells”. Also, in data set [7], the “apoptosis / cell death markers (cleaved caspase-3^+ cells), breast adenocarcinoma organoids” value is reported as “had no effect” and the “cell proliferation (Ki-67^+ cells), breast adenocarcinoma organoids” value is reported as “had no effect”. Further, in data set [8], the “apoptosis / cell death markers (cleaved caspase-3^+ cells), NSCLC organoids” value is reported as “had no effect” and the “cell proliferation (Ki-67^+ cells), NSCLC organoids” value is recorded as “had no effect”. Moreover, in [9] (CellTox), the tumor cell death entry was “had no effect”. In addition, the mitochondrial membrane potential result in [9] (TMRE) is “had no effect”. Further, the “loss of mitochondrial membrane potential” value with PC3 cells [2] was “not”. Also, in [10], the “cell death of normal fibroblasts (HFF)” value was “did not kill normal or prostate cancer cells”. Moreover, in the data set with glioblastoma LN229 cells (0-40 μM), the “killing of GBM LN229 cells” value was “did not cause LN229 cell killing”. Besides, the “HMGB1 release from tumor cells” value with DU145 or PC3 cells was “had no effect on HMGB1 release; also recorded: did not induce HMGB1 release”. In addition, in [3], the “tumor cell death / viability” value is “did not kill normal or prostate cancer cells”. Besides, the “cytotoxicity for patient-derived GBM neurospheres (loss of cell viability)” value in data set [11] is reported as “not”.
